In patent US20050009886A1, “1,4-Dihydropyridine derivative with a guaiacoxypropanolamine and/or phenoxypropanolamine moiety” (priority 1998, published 2005):

Key:
[1] = biological target: T1, β2-adrenoceptor (Cavia porcellus, UniProt Q8K4Z4); assay: Direct effect (intrinsic sympathomimetic activity) on reserpine pretreated isolated tracheal; parameters: species or system guinea pig; conditions: cumulative 10^−10˜3×10^−6 M, reserpine pretreated tracheal
T1 construct: a portion of tracheal approximately 4 cm long was removed; from tissue; host or cells: isolated trachea of reserpine-pretreated guinea pigs
Method: 18˜24 hours before the experiment, 5 mg/kg of reserpine was injected via abdominal cavity to remove all endogenous catecholamines. Prior experiment, guinea pigs were sacrificed, the tracheal was immediately removed and placed in Kreb's solution aerated with air mixture and maintained at room temperature of 22˜25° C. […] Then the tissue was repeatedly washed with Kreb's solution.

[2] = biological target: T2, β-adrenoreceptor (β1) (Rattus norvegicus, UniProt P18090); assay: Isolated right atrium, L-isoproterenol-induced heart rate increase (pA2); parameters: species or system Wistar rat
T2 construct: The right and left atria were then separated; from tissue; host or cells: isolated rat right atrium (spontaneously beating) and left atrium (electrically paced)
Method: The right and left atria were then separated. The spontaneously-beating right atria was clipped on both end by heart shaped clips, where one end was fixed at the bottom of 10 ml of tissue bath made of physiological saline solution, and temperature maintained at 37° C. The other end of the atria was connected to a force transducer, and isometric contractions and beating rate of the right atria were recorded by COULBOURN AT-High-Speed VideoFigure. After the samples were given 250 mg of contractions and reach equilibrium the following experiments were carried out: • (a) β-adrenoceptor blocking action
Cumulative administration interval was when the previous concentration reached its greatest effect, the next concentration would be immediately given.
The equation is as follows: pA2=−Log KB Log(DRADJ−1)=nlog[B]−LogKB [formula]
[B] Test compound concentration in moles • KB: equilibrium dissociation constant • n: value of slope DR: test EC50 divided by control EC50 • CF: EC50 of second or third control groups divided by EC50 of first control group (c) Effect of Compound on the Increase of Spontaneous Beating in Right Atrium Caused by CaCl2

T2 sequence (P18090 whole entry): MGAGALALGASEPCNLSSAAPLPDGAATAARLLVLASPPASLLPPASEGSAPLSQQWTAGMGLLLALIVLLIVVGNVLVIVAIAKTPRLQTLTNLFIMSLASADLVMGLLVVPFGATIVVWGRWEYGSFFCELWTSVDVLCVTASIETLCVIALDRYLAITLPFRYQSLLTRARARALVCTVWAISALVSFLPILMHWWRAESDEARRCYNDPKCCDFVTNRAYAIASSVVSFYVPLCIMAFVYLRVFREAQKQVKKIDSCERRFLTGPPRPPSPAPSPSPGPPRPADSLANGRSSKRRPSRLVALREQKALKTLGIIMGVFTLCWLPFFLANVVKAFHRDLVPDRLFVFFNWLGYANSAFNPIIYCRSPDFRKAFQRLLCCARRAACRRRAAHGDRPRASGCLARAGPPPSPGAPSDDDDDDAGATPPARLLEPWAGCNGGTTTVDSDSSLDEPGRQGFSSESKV
T1 sequence (Q8K4Z4 whole entry): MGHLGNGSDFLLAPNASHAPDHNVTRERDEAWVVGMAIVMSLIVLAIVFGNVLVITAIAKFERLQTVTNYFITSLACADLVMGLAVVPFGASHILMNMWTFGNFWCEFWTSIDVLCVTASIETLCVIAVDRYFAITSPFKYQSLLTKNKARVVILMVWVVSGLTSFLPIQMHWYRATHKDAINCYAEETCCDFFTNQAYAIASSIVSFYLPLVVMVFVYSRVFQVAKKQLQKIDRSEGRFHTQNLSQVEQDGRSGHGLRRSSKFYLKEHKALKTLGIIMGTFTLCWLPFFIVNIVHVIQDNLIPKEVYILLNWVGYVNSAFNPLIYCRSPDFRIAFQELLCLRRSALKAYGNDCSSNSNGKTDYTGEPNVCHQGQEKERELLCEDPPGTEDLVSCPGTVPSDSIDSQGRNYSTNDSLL

Question: What does the source list for `COc1cc(C=O)ccc1OCC(O)CNC(C)(C)C` (stereo not drawn) [Vanidilol, reference compound]?
Answer: direct tracheal relaxation effect [1]: dose-dependant tracheal relaxation effect; effect on right atrium relative to tracheal (selectivity ratio of β1 type adrenoceptor) ([2]; from average pA2 difference between right atrium and tracheal): 0.98 ×; selectivity on the type of β-adrenoceptor ([2]; β1:β2): non-selective
